Test results: patent US5656603A (Loyola University of Chicago, priority 1995, dated 1997)
Like-named read-outs stand apart in the source and are kept apart here.

Tests used:
[1] = target: T1, aminopeptidase A (EC 3.4.11.7) (Rattus norvegicus, UniProt P50123); experiment: Specificity of apstatin: aminopeptidase A; assay type: biochemical; conditions: rat lung microsomes; α-Glu-β-Na, pH 6.8, HPLC-1
T1 construct: aminopeptidase A (EC 3.4.11.7) (rat lung microsomes); from tissue; host or cells: rat lung microsomes
Description: (§1) Specificity of Apstatin--Apstatin was assayed for its ability to inhibit several other peptidases. […] Unless otherwise indicated, the source of each enzyme activity was a detergent extract of bovine lung prepared as described in (12-13). Activities were determined by a modification of the fluorescent assay described above (indicated by "FLUO") or by HPLC separation and quantitation of reaction products using the method described in (12) (method "HPLC-1") or the method described below (method "HPLC-2"). […]

[2] = target: T2, endopeptidase 24.11 (Bos taurus, UniProt E1BPL8); experiment: Specificity of apstatin: endopeptidase 24.11; assay type: biochemical; conditions: detergent extract of bovine lung; Suc-Ala-Ala-Phe-7-amido-4-methyl-coumarin, pH 6.8, HPLC-1
T2 construct: Unless otherwise indicated, the source of each enzyme activity was a detergent extract of bovine lung; from tissue; host or cells: detergent extract of bovine lung
T2 sequence (E1BPL8 1-750): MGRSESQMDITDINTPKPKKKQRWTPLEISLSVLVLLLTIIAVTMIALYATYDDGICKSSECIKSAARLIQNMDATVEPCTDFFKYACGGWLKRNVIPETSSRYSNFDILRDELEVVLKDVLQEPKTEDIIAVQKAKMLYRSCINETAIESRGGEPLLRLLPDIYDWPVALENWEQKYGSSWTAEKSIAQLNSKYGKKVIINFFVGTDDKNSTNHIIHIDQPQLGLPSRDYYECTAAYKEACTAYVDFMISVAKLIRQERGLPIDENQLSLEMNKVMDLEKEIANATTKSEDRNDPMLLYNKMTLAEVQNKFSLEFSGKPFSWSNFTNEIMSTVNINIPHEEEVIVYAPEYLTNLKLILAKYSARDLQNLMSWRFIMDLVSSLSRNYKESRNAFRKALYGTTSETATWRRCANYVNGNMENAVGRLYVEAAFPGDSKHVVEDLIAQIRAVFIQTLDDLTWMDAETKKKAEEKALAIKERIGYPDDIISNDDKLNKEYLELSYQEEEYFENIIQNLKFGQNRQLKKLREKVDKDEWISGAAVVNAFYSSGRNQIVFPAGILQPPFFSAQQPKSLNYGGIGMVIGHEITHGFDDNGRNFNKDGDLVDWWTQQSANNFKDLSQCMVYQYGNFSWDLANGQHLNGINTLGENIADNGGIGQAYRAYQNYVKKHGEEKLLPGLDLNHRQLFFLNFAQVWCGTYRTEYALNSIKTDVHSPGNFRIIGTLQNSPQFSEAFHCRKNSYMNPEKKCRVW
Description: as §1

[3] = system: blood pressure response to Bk; experiment: Blood pressure response to intravenous bradykinin in the rat; assay type: in vivo; conditions: rats; intravenously, administered over a one hour period
Description: While aminopeptidase P appears to be quantitatively less important than ACE, there is now evidence that aminopeptidase P is nevertheless a physiologically important regulator of the blood pressure response to Bk in the rat (15,41). […] Thus, aminopeptidase P appears to play a significant role in the pulmonary degradation of Bk.
See e.g., Table 2. […] A typical therapeutically effective dose of a compound of the present invention is from about 0.008 mg/kg to 8.0 mg/kg, when given intravenously.

[4] = system: blood pressure response to Bk; conditions: rat, cited from earlier work

T1 sequence (P50123 whole entry): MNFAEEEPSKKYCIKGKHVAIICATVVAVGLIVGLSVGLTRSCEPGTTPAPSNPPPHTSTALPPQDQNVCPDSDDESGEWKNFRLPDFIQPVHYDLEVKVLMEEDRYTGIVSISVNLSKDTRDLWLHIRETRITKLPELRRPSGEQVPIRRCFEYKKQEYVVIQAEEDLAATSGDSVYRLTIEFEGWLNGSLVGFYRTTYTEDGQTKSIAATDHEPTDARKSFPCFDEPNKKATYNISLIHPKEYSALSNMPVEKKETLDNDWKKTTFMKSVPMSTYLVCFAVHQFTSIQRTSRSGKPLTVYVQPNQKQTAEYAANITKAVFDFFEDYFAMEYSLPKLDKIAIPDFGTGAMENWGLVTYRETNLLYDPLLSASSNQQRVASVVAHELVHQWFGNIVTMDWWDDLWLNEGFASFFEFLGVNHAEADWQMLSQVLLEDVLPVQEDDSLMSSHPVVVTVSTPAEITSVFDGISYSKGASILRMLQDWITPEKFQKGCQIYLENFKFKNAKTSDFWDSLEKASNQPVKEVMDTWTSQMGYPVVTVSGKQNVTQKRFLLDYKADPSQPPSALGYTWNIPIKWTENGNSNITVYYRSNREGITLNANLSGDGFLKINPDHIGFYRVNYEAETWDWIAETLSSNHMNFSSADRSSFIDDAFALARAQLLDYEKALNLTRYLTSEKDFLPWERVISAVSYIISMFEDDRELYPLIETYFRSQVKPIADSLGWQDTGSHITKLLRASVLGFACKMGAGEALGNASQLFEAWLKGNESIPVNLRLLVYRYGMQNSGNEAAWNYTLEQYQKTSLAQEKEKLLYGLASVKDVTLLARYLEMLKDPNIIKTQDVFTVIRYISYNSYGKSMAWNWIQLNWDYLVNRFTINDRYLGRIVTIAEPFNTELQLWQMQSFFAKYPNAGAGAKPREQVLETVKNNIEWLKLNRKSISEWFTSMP

C[C@H](NC(=O)[C@@H]1CCCN1C(=O)[C@@H]1CCCN1C(=O)[C@@H](O)[C@H](N)Cc1ccccc1)C(N)=O [apstatin, N-[(2S, 3R)-3-amino-2-hydroxy-4-phenylbutanoyl]-L-prolyl-L-prolyl-Lalaninamide]
IC50 [1]: > 800 µM
IC50 [2]: > 800 µM
dose at which Bk potentiation has been observed [3]: 0.08 to 0.8 mg/kg
effect on blood pressure decrease caused by intravenous administration of Bk ([4]; apstatin alone): significantly potentiate the magnitude as well as the duration
effect on blood pressure decrease caused by intravenous administration of Bk ([4]; apstatin plus lisinopril versus lisinopril alone): more effective in this regard than lisinopril alone
